Experimental data: paper PMC5218480 (PLoS ONE, 2017)

Tested on: MV-4-11 cells
Assay: Gene expression microarray analysis (Affymetrix PrimeView) and GSEA
Format: cell-based, human
Design: RFU PODN (11730768_x_at) / Fold change /veh PODN (11730768_x_at) / RFU LINC00158 (11744669_a_at) / Fold change /veh LINC00158 (11744669_a_at) / RFU DUSP10 (11751237_a_at) / Fold change /veh DUSP10 (11751237_a_at) / RFU ID3 (11757404_x_at) / Fold change /veh ID3 (11757404_x_at) / RFU PLEKHG5 (11737974_s_at) / Fold change /veh PLEKHG5 (11737974_s_at) / RFU LRRC4B (11730491_at) / Fold change /veh LRRC4B (11730491_at) / RFU GIMAP4 (11747438_a_at) / Fold change /veh GIMAP4 (11747438_a_at) / RFU KRT8 (11758183_x_at) / Fold change /veh KRT8 (11758183_x_at) / RFU CNN1 (11734310_a_at) / Fold change /veh CNN1 (11734310_a_at) / RFU VPS37D (11726825_at) / Fold change /veh VPS37D (11726825_at) / RFU C10orf10 (11716522_x_at) / Fold change /veh C10orf10 (11716522_x_at) / RFU KIR2DL2 /// KIR2DL4 /// KIR2DL5A /// KIR2DL5B /// KIR2DS1 /// KIR2DS2 /// KIR2DS3 /// KIR2DS4 /// KIR3DL3 /// KIR3DL3 /// KIR3DS1 (11738374_at) / Fold change /veh KIR2DL2 /// KIR2DL4 /// KIR2DL5A /// KIR2DL5B /// KIR2DS1 /// KIR2DS2 /// KIR2DS3 /// KIR2DS4 /// KIR3DL3 /// KIR3DL3 /// KIR3DS1 (11738374_at) / RFU C1QL1 (11718748_at) / Fold change /veh C1QL1 (11718748_at) / RFU TMPRSS4 (11747572_a_at) / Fold change /veh TMPRSS4 (11747572_a_at) / RFU HAMP (11756126_x_at) / Fold change /veh HAMP (11756126_x_at) / RFU RNFT2 (11725882_a_at) / Fold change /veh RNFT2 (11725882_a_at) / RFU NR4A2 (11747474_a_at) / Fold change /veh NR4A2 (11747474_a_at) / RFU ABCC12 (11746883_a_at) / Fold change /veh ABCC12 (11746883_a_at) / RFU TMEM136 (11760407_x_at) / Fold change /veh TMEM136 (11760407_x_at) / RFU CLDN22 /// WWC2 (11732394_at) / Fold change /veh CLDN22 /// WWC2 (11732394_at) / RFU HLA-DPB1 (11760878_x_at) / Fold change /veh HLA-DPB1 (11760878_x_at) / RFU SPINT1 (11716480_a_at) / Fold change /veh SPINT1 (11716480_a_at) / RFU GAP43 (11754022_s_at) / Fold change /veh GAP43 (11754022_s_at) / RFU A4GNT (11735810_at) / Fold change /veh A4GNT (11735810_at) / RFU PRB3 (11715151_x_at) / Fold change /veh PRB3 (11715151_x_at) / RFU TUBB4B (11761932_at) / Fold change /veh TUBB4B (11761932_at) / RFU CAPN14 (11732068_a_at) / Fold change /veh CAPN14 (11732068_a_at) / RFU TMCC2 (11721928_a_at) / Fold change /veh TMCC2 (11721928_a_at) / RFU IRGQ (11745062_a_at) / Fold change /veh IRGQ (11745062_a_at) / RFU FAM174B (11720279_a_at) / Fold change /veh FAM174B (11720279_a_at) / RFU TMPRSS4 (11748680_a_at) / Fold change /veh TMPRSS4 (11748680_a_at) / RFU FAM212B (11763350_a_at) / Fold change /veh FAM212B (11763350_a_at) / RFU PLEKHG5 (11743358_a_at) / Fold change /veh PLEKHG5 (11743358_a_at) / RFU ZSCAN30 (11745921_a_at) / Fold change /veh ZSCAN30 (11745921_a_at) / RFU CMKLR1 (11741424_a_at) / Fold change /veh CMKLR1 (11741424_a_at) / RFU LOC101060620 /// MAPK8IP1 (11723275_at) / Fold change /veh LOC101060620 /// MAPK8IP1 (11723275_at) / RFU SPTSSB (11747773_x_at) / Fold change /veh SPTSSB (11747773_x_at) / RFU PRSS12 (11739890_at) / Fold change /veh PRSS12 (11739890_at) / RFU BIN1 (11741810_x_at) / Fold change /veh BIN1 (11741810_x_at) / RFU WNT11 (11732464_a_at) / Fold change /veh WNT11 (11732464_a_at) / RFU C10orf10 (11716521_a_at) / Fold change /veh C10orf10 (11716521_a_at) / RFU C5orf56 (11738089_at) / Fold change /veh C5orf56 (11738089_at) / RFU CYB561 (11721691_x_at) / Fold change /veh CYB561 (11721691_x_at) / RFU ANKRD19P (11752326_a_at) / Fold change /veh ANKRD19P (11752326_a_at) / RFU OR2T12 /// OR2T33 /// OR2T8 (11738714_s_at) / Fold change /veh OR2T12 /// OR2T33 /// OR2T8 (11738714_s_at) / RFU VCAN (11748164_a_at) / Fold change /veh VCAN (11748164_a_at) / RFU JSRP1 (11732532_at) / Fold change /veh JSRP1 (11732532_at) / RFU KRTAP10-11 (11738290_x_at) / Fold change /veh KRTAP10-11 (11738290_x_at) / RFU MYO3A (11730013_a_at) / Fold change /veh MYO3A (11730013_a_at) / RFU EBF3 (11725865_a_at) / Fold change /veh EBF3 (11725865_a_at) / RFU CAMK2N1 (11719241_x_at) / Fold change /veh CAMK2N1 (11719241_x_at) / RFU C5orf56 (11738088_a_at) / Fold change /veh C5orf56 (11738088_a_at) / RFU OLFML3 (11715873_a_at) / Fold change /veh OLFML3 (11715873_a_at) / RFU LOC100653217 /// NTM (11731650_a_at) / Fold change /veh LOC100653217 /// NTM (11731650_a_at) / RFU MAPK11 (11762145_a_at) / Fold change /veh MAPK11 (11762145_a_at) / RFU FIZ1 (11724087_x_at) / Fold change /veh FIZ1 (11724087_x_at) / RFU OASL (11726364_x_at) / Fold change /veh OASL (11726364_x_at) / RFU SOX15 (11748057_x_at) / Fold change /veh SOX15 (11748057_x_at) / RFU CD79A (11719716_a_at) / Fold change /veh CD79A (11719716_a_at) / RFU HIST1H1D (11736915_at) / Fold change /veh HIST1H1D (11736915_at) / RFU CASKIN2 (11723855_a_at) / Fold change /veh CASKIN2 (11723855_a_at) / RFU LOC730098 (11760151_x_at) / Fold change /veh LOC730098 (11760151_x_at) / RFU OR4N2 (11742367_at) / Fold change /veh OR4N2 (11742367_at) / RFU PRRT2 (11749266_a_at) / Fold change /veh PRRT2 (11749266_a_at) / RFU SNX32 (11753110_a_at) / Fold change /veh SNX32 (11753110_a_at) / RFU CDHR5 (11726645_a_at) / Fold change /veh CDHR5 (11726645_a_at) / RFU RCAN1 (11760418_a_at) / Fold change /veh RCAN1 (11760418_a_at) / RFU FAM167A (11723789_a_at) / Fold change /veh FAM167A (11723789_a_at) / RFU FAM26E (11764081_at) / Fold change /veh FAM26E (11764081_at) / RFU ISYNA1 (11749810_s_at) / Fold change /veh ISYNA1 (11749810_s_at) / RFU ACY1 (11761880_at) / Fold change /veh ACY1 (11761880_at) / RFU 11764098_at / Fold change /veh 11764098_at / RFU SAMD14 (11745864_x_at) / Fold change /veh SAMD14 (11745864_x_at) / RFU NPB (11741838_a_at) / Fold change /veh NPB (11741838_a_at) / RFU TMPRSS6 (11731388_a_at) / Fold change /veh TMPRSS6 (11731388_a_at) / RFU KRTAP10-2 (11738614_at) / Fold change /veh KRTAP10-2 (11738614_at) / RFU ARHGAP8 /// PRR5-ARHGAP8 (11727945_x_at) / Fold change /veh ARHGAP8 /// PRR5-ARHGAP8 (11727945_x_at) / RFU KRTAP5-7 /// NADSYN1 (11734609_at) / Fold change /veh KRTAP5-7 /// NADSYN1 (11734609_at) / RFU RASL12 (11751679_a_at) / Fold change /veh RASL12 (11751679_a_at) / RFU CDKN2B (11736163_a_at) / Fold change /veh CDKN2B (11736163_a_at) / RFU PRF1 (11729649_at) / Fold change /veh PRF1 (11729649_at) / RFU, ZNF638 /// ZNF638-IT1 / Fold change vs veh, ZNF638 /// ZNF638-IT1 / RFU, PANK3 / Fold change vs veh, PANK3 / RFU, SH3YL1 / Fold change vs veh, SH3YL1 / RFU, ZEB2 / Fold change vs veh, ZEB2 / RFU, NRIP1 / Fold change vs veh, NRIP1 / RFU, PTTG1IP / Fold change vs veh, PTTG1IP / RFU, CAPN2 / Fold change vs veh, CAPN2 / RFU, MED14 / Fold change vs veh, MED14 / RFU, SNORA58 / Fold change vs veh, SNORA58 / RFU, C1orf63 / Fold change vs veh, C1orf63 / RFU, LRRFIP1 / Fold change vs veh, LRRFIP1 / RFU, NDUFAF7 / Fold change vs veh, NDUFAF7 / RFU, SLC12A2 / Fold change vs veh, SLC12A2 / RFU, IBTK / Fold change vs veh, IBTK / RFU, ESF1 / Fold change vs veh, ESF1 / Fold change vs veh, TMEM50B / RFU, TAOK1 / Fold change vs veh, TAOK1 / RFU, ACBD3 / Fold change vs veh, ACBD3 / RFU, TMA16 / Fold change vs veh, TMA16 / RFU, RWDD3 / Fold change vs veh, RWDD3 / RFU, BCAT1 / Fold change vs veh, BCAT1 / RFU, EDEM3 / Fold change vs veh, EDEM3 / RFU, TMEM33 / Fold change vs veh, TMEM33 / RFU, WDR75 / Fold change vs veh, WDR75 / RFU, AHCTF1 / Fold change vs veh, AHCTF1 / RFU, TFRC / Fold change vs veh, TFRC / RFU, ZDHHC17 / Fold change vs veh, ZDHHC17 / RFU, NOM1 / Fold change vs veh, NOM1 / RFU, ARL8B / Fold change vs veh, ARL8B / RFU, ZBTB11 / Fold change vs veh, ZBTB11 / RFU, TAMM41 / Fold change vs veh, TAMM41 / RFU, KIAA1704 /// LOC100996395 / Fold change vs veh, KIAA1704 /// LOC100996395 / RFU, ING1 / Fold change vs veh, ING1 / RFU, TRMT61B / Fold change vs veh, TRMT61B / RFU, FUBP3 / Fold change vs veh, FUBP3 / RFU, TP53 / Fold change vs veh, TP53 / RFU, TNKS2 / Fold change vs veh, TNKS2 / RFU, ZFP14 / Fold change vs veh, ZFP14 / RFU, ACTR2 / Fold change vs veh, ACTR2 / RFU, PPP3R1 / Fold change vs veh, PPP3R1 / RFU, PIK3R1 / Fold change vs veh, PIK3R1 / RFU, HNRNPA1 / Fold change vs veh, HNRNPA1 / RFU, RNF170 / Fold change vs veh, RNF170 / RFU, ZNF28 / Fold change vs veh, ZNF28 / RFU, RNGTT / Fold change vs veh, RNGTT / RFU, OGT / Fold change vs veh, OGT / RFU, BRD1 / Fold change vs veh, BRD1 / RFU, MARS / Fold change vs veh, MARS / RFU, ZNF655 / Fold change vs veh, ZNF655 / RFU, FAHD1 / Fold change vs veh, FAHD1 / RFU, BDP1 / Fold change vs veh, BDP1 / RFU, LRRCC1 / Fold change vs veh, LRRCC1 / RFU, ARID1A / Fold change vs veh, ARID1A / RFU, ZNF146 / Fold change vs veh, ZNF146 / RFU, ZNF330 / Fold change vs veh, ZNF330 / RFU, GPN3 / Fold change vs veh, GPN3 / RFU, C9orf123 / Fold change vs veh, C9orf123 / RFU, N4BP2L2 / Fold change vs veh, N4BP2L2 / RFU, ARFIP1 / Fold change vs veh, ARFIP1 / RFU, FAM179B / Fold change vs veh, FAM179B / RFU, BCL10 / Fold change vs veh, BCL10 / RFU, UHRF1BP1L / Fold change vs veh, UHRF1BP1L / RFU, BET1 / Fold change vs veh, BET1 / RFU, CNOT2 / Fold change vs veh, CNOT2 / RFU, ZNF268 / Fold change vs veh, ZNF268 / Fold change vs veh, ZNF507 / RFU, DGCR2 / Fold change vs veh, DGCR2 / RFU, WDSUB1 / Fold change vs veh, WDSUB1 / Fold change vs veh, HSP90B1 /// MIR3652 / RFU, ADSS / Fold change vs veh, ADSS / RFU, GK / Fold change vs veh, GK / RFU, ZNF148 / Fold change vs veh, ZNF148 / RFU, TAF9 / Fold change vs veh, TAF9 / RFU, SLC1A5 / Fold change vs veh, SLC1A5 / RFU, SLMO2 / Fold change vs veh, SLMO2 / RFU, ABCC4 / Fold change vs veh, ABCC4 / RFU, LOC101060439 /// RAP1B / Fold change vs veh, LOC101060439 /// RAP1B / RFU, RFX7 / Fold change vs veh, RFX7 / RFU, GTPBP10 / Fold change vs veh, GTPBP10 / RFU, CNEP1R1 / Fold change vs veh, CNEP1R1 / RFU, BIVM-ERCC5 /// ERCC5 / Fold change vs veh, BIVM-ERCC5 /// ERCC5 / RFU, ILF3 / Fold change vs veh, ILF3 / RFU 11762660_at / Fold change /veh 11762660_at / RFU VCAN (11757783_s_at) / Fold change /veh VCAN (11757783_s_at) / RFU DDX43 (11728927_at) / Fold change /veh DDX43 (11728927_at) / RFU KRT8 (11758188_x_at) / Fold change /veh KRT8 (11758188_x_at) / RFU NKD1 (11759106_at) / Fold change /veh NKD1 (11759106_at) / RFU SRD5A1 (11742802_a_at) / Fold change /veh SRD5A1 (11742802_a_at) / RFU TPSAB1 /// TPSB2 (11721975_s_at) / Fold change /veh TPSAB1 /// TPSB2 (11721975_s_at) / RFU GSTM3 (11746129_a_at) / Fold change /veh GSTM3 (11746129_a_at) / RFU IL23R (11737362_x_at) / Fold change /veh IL23R (11737362_x_at) / RFU TMEM51 (11727254_a_at) / Fold change /veh TMEM51 (11727254_a_at) / RFU PIWIL2 (11732686_x_at) / Fold change /veh PIWIL2 (11732686_x_at) / RFU ORM1 (11744905_x_at) / Fold change /veh ORM1 (11744905_x_at) / RFU CCDC152 (11743942_at) / Fold change /veh CCDC152 (11743942_at) / RFU ECM1 (11717891_a_at) / Fold change /veh ECM1 (11717891_a_at) / RFU IL23R (11748794_a_at) / Fold change /veh IL23R (11748794_a_at) / RFU TNFAIP8L3 (11732012_x_at) / Fold change /veh TNFAIP8L3 (11732012_x_at) / RFU MBOAT4 (11741988_at) / Fold change /veh MBOAT4 (11741988_at) / RFU 11764193_at / Fold change /veh 11764193_at / RFU TMEM53 (11763286_at) / Fold change /veh TMEM53 (11763286_at) / RFU MAGEB2 (11727129_at) / Fold change /veh MAGEB2 (11727129_at) / RFU TMEM200A (11744735_a_at) / Fold change /veh TMEM200A (11744735_a_at) / RFU CCDC152 (11751479_a_at) / Fold change /veh CCDC152 (11751479_a_at) / RFU FAM211A (11726209_a_at) / Fold change /veh FAM211A (11726209_a_at) / RFU RGS16 (11746705_a_at) / Fold change /veh RGS16 (11746705_a_at) / RFU VCAN (11755009_s_at) / Fold change /veh VCAN (11755009_s_at) / RFU RHOB (11743442_s_at) / Fold change /veh RHOB (11743442_s_at) / RFU RGS16 (11720943_a_at) / Fold change /veh RGS16 (11720943_a_at) / RFU RGS16 (11720944_at) / Fold change /veh RGS16 (11720944_at) / RFU, VPS4B / Fold change vs veh, VPS4B / RFU, CREB1 / Fold change vs veh, CREB1 / RFU, DNAJC13 / Fold change vs veh, DNAJC13 / RFU, GNAQ / Fold change vs veh, GNAQ / RFU, CDK5R1 / Fold change vs veh, CDK5R1 / RFU, ZRANB3 / Fold change vs veh, ZRANB3 / RFU, CUL4A / Fold change vs veh, CUL4A / RFU, CCNY / Fold change vs veh, CCNY / RFU, UFL1 / Fold change vs veh, UFL1 / RFU, COG3 / Fold change vs veh, COG3 / RFU, DIAPH2 / Fold change vs veh, DIAPH2 / RFU, SKA2 / Fold change vs veh, SKA2 / RFU, AFF3 / Fold change vs veh, AFF3 / RFU, LMF1 / Fold change vs veh, LMF1 / RFU, IPO11 / Fold change vs veh, IPO11 / RFU, DFFB / Fold change vs veh, DFFB / RFU, FOXP1 / Fold change vs veh, FOXP1 / RFU, CARD8 / Fold change vs veh, CARD8 / RFU, STRN3 / Fold change vs veh, STRN3 / RFU, ADK / Fold change vs veh, ADK / RFU, RASSF2 / Fold change vs veh, RASSF2 / RFU, WIPF1 / Fold change vs veh, WIPF1 / RFU, LARP1B / Fold change vs veh, LARP1B / RFU, RASA1 / Fold change vs veh, RASA1 / RFU, RB1 / Fold change vs veh, RB1 / RFU, PPFIA1 / Fold change vs veh, PPFIA1 / RFU, MAT2A / Fold change vs veh, MAT2A / RFU, CCT5 / Fold change vs veh, CCT5 / RFU, WDR92 / Fold change vs veh, WDR92 / RFU, CUX1 / Fold change vs veh, CUX1 / RFU, TTC7A / Fold change vs veh, TTC7A / RFU, TMEM135 / Fold change vs veh, TMEM135 / RFU, DEPTOR / Fold change vs veh, DEPTOR / RFU, CPM / Fold change vs veh, CPM / RFU, DNAJB6 / Fold change vs veh, DNAJB6 / RFU, CACNA2D3 / Fold change vs veh, CACNA2D3 / RFU, DTX4 / Fold change vs veh, DTX4 / RFU, TFCP2 / Fold change vs veh, TFCP2 / RFU, GMCL1 /// GMCL1P1 / Fold change vs veh, GMCL1 /// GMCL1P1 / RFU, AEBP2 / Fold change vs veh, AEBP2 / RFU, SNHG1 /// SNORD22 /// SNORD25 /// SNORD26 /// SNORD27 /// SNORD28 /// SNORD29 /// SNORD31 / Fold change vs veh, SNHG1 /// SNORD22 /// SNORD25 /// SNORD26 /// SNORD27 /// SNORD28 /// SNORD29 /// SNORD31 / Fold change (Aza/veh), C12orf56 (ProbeSet 11735607_a_at) / Fold change (ACY-1035/veh), C12orf56 (ProbeSet 11735607_a_at) / Fold change (Aza/veh), FGFR1OP (ProbeSet 11751329_s_at) / Fold change (ACY-1035/veh), FGFR1OP (ProbeSet 11751329_s_at) / Fold change (Aza/veh), VPS36 (ProbeSet 11739960_a_at) / Fold change (ACY-1035/veh), VPS36 (ProbeSet 11739960_a_at) / RFU SYPL1 (11715823_x_at) / Fold change /veh SYPL1 (11715823_x_at) / RFU IGFBP7 (11715501_s_at) / Fold change /veh IGFBP7 (11715501_s_at) / RFU REEP3 (11722064_at) / Fold change /veh REEP3 (11722064_at) / RFU IGLL1 (11728026_x_at) / Fold change /veh IGLL1 (11728026_x_at): dose or concentration left out as unconfirmed
Settings: ProbeSet 11749477_a_at; LIST B

`Nc1ncn([C@@H]2O[C@H](CO)[C@@H](O)[C@H]2O)c(=O)n1` [azacitidine] was tested, and the “Fold change vs veh, EDEM3” value was 0.89.
